Article PMC10084752, “Heterologous Expression of the Hot Pepper ABA 8’-Hydroxylase in Escherichia coli for Phaseic Acid Production” (Journal of Microbiology and Biotechnology, 2023)

Biological target: T1, CaCYP707A2 (Capsicum annuum, UniProt X2C029)
T1 construct: gene CYP707A70; full-length, no N-terminal modification; pCW ori(+) in E. coli Rosetta (DE3) pLysS; 54 kDa
T1 sequence (X2C029 1-477): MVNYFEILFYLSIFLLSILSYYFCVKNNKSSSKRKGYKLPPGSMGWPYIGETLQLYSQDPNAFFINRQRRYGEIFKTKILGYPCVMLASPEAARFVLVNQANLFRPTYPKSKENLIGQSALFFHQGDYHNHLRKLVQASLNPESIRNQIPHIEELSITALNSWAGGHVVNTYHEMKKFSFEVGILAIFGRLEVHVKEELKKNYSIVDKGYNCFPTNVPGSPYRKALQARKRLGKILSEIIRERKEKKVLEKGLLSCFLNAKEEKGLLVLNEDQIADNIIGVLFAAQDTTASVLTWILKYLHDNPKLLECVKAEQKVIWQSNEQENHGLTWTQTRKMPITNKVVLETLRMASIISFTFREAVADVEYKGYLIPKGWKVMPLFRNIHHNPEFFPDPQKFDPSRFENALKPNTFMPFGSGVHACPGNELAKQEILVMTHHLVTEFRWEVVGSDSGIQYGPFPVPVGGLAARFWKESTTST
Test: spectral binding titration (type I UV-visible difference spectrum)

CC1=CC(=O)CC(C)(C)C1(O)/C=C/C(C)=C\C(=O)O (stereo in doubt) [(+)-ABA]
Kd: 5.8 ± 0.93 µM
